These results are taken from patent US11111259B2, “Acylsulfonamide derivatives for treating senescence-associated diseases and disorders” (Unity Biotechnology, Inc., priority 2015, dated 2021).

The target in experiment [1] is T1, BCL-w (Homo sapiens, UniProt Q92843).
T1 sequence (Q92843 1-193): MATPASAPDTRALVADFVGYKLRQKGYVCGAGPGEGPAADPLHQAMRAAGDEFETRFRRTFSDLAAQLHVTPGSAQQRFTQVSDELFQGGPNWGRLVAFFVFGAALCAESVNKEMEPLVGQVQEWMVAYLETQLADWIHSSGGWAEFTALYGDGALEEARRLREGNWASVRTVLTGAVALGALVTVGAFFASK
The experiment can be described thus: BCL-binding assay (AlphaLISA competition, BIM peptide). Particulars: 6xHis BCL-w with biotinylated BIM peptide, 24 hr incubation. Put shortly: (§1)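 6xHis-tagged BCL-xL (0.4 nM stock-diluted) was paired with biotinylated BAD, and BCL-2 or BCL-w (0.8 nM) with biotinylated BIM, in 25 mM HEPES pH 7.5, 100 mM NaCl, 0.1% BSA, 0.005% Tween; compound competition for 24 hr at room temperature, then AlphaLISA anti-His acceptor and streptavidin donor bead read-out. Kd derived by one-site competitive binding model using known protein–peptide Kd values.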
In general terms: Bead proximity is the source of the signal in Alpha formats.

The target in experiment [2] is BCL-2 (Homo sapiens, UniProt P10415). Described as above. Particulars: 6xHis BCL-2 with biotinylated BIM peptide, 24 hr incubation. In a few lines:
as §1

In experiment [3] the target is BCL-xL (Homo sapiens, UniProt Q07817). The experiment can be described thus: BCL-binding assay (AlphaLISA competition, BAD peptide). Particulars: 6xHis BCL-xL with biotinylated BAD peptide, 24 hr incubation. In a few lines:
as §1

The test system of experiment [4] is IMR-90 SnC (irradiated senescent IMR90 cells). The experiment can be described thus: Senolysis assay (CellTiter-Glo viability). In kind it is cell-based, human. Particulars: Homo sapiens, IMR-90, light or radiation study, 72 h; X-ray irradiated senescent IMR90 cells, viability three days after compound addition. Put shortly: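 X-irradiated (10-15 Gy) IMR90 cells held two weeks, alongside non-senescent IMR90 plated 4 or 1 day before, exposed to compound for three days. CellTiter-Glo viability relative to DMSO gave EC50; selectivity index = non-senescent EC50 / senescent EC50.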
For orientation: In ATP-based viability assays light output follows the ATP content of the culture.

BCL-xL, sequence (Q07817 whole entry, species assumed): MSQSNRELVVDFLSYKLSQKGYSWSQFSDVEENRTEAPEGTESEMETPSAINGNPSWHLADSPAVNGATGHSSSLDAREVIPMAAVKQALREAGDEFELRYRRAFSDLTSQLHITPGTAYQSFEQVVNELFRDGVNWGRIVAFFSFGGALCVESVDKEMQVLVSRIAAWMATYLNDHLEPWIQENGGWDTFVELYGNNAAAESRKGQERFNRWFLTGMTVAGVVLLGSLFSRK
BCL-2, sequence (P10415 whole entry, species assumed): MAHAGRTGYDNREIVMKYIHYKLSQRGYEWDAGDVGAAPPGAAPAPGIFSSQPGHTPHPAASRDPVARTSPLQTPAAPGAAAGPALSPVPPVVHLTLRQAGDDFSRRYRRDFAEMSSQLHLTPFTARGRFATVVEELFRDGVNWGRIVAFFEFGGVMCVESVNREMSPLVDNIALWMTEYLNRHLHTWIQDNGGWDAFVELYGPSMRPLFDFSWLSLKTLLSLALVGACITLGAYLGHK

`CCOP(=O)(CN1CCN(CC[C@H](CSc2ccccc2)Nc2ccc(S(=O)(=O)NC(=O)c3ccc(N4CCN(Cc5ccccc5-c5ccc(Cl)cc5)CC4)cc3)cc2S(=O)(=O)C(F)(F)F)CC1)OCOC(=O)OC(C)C` (stereo partly drawn) [Compound 56, (((4-((R)-3-((4-(N-(4-(4-((4′-chloro-[1,1′-biphenyl]-2-yl)methyl)piperazin-1-yl)benzoyl)sulfamoyl)-2-((trifluoromethyl)sulfonyl)phenyl)amino)-4-(phenylthio)butyl)piperazin-1-yl)methyl)(ethoxy)phosphoryl)oxy)methyl isopropyl carbonate]: the values for the Kd in experiment [1], in experiment [2] and in experiment [3] were 1 to 10 nM, < 1 nM and < 1 nM, respectively. Besides, the EC50 (as a rule, the concentration giving half of the maximal effect) in experiment [4] was > 10000 nM.
